According to paper PMC4965013, “Open Source Drug Discovery with the Malaria Box Compound Collection for Neglected Diseases and Beyond” (PLoS Pathogens, 2016):
Where “and” joins values, the source holds several entries; their conditions need not be identical. Equal values may be shown once.

How the values were obtained:
[1] = system: S. mansoni adult worms; assay: S. mansoni adult worms LSHTM Bickle; type: cell-based, Schistosoma mansoni; conditions: 15 μM
Experimental: Columns DI-DJ, DL: Bickle group. (columns DI and DL data presented first in this paper, column DJ partially published in ref [95].). […] Male CD1 mice (aged 5–6 weeks) were bred on site using SPF conditions with access of food and water ab libitum. Worms were obtained by portal perfusion of CD1 mice (Charles River, UK) 6 weeks post-infection and 3 worm pairs added to the wells of 48 well plates (Nunc, UK) in 1 ml complete DMEM medium supplemented with 10% fetal calf serum (Gibco, UK), 2 mM L-glutamine, 100 U/ml penicillin, 100 µg/ml streptomycin (cDMEM). A primary adult worm screen was performed in which 400 MMV compounds were tested at 15 µM in 0.15% DMSO. Negative controls contained worms cultured in cDMEM alone and in cDMEM with 0.15% DMSO. Positive control wells contained worms cultured in Praziquantel (Sigma-Aldrich, UK) at 10 µM. Cultures were incubated at 37 °C and 5% CO2. Effects were assessed on day 5 of culture using an inverted microscope (Leitz Diavert Wetzlar, Germany). Any compounds producing complete immobility or ≥ 70% worm motility inhibition plus severe morphological damage were considered hits in the primary screen. […] IC50 for the compounds was calculated using Microsoft XLfit version 5.1.0.0 (2006-2008 ID Business Solutions Ltd). In vitro screening of S. mansoni schistosomula run at LSHTM (London): Schistosomula were prepared as previously reported with the modification of using a 45% and 70% Percoll gradient and the cercarial heads recovered from the 70% layer. All centrifugation steps were done at 350 xg. An appropriate volume of drug Stock was pre-added to wells in 96-well microtiter culture plates (Nunc, UK) containing 100 µl complete M169 (cM169). The wells were then topped up with another 100 µl of cM169 containing 100 schistosomula to give final concentrations of 15 µM of compound per well. Negative controls contained larvae cultured in cM169 alone and in cM169 with 0.5% DMSO. Positive control wells contained schistosomula cultured in Praziquantel (Sigma-Aldrich, UK) at 10 µM. Cultures were incubated at 37 °C and 5% CO2. Effects were assessed on day 3 of culture using an inverted microscope (Leitz Diavert Wetzlar, Germany). Any compounds producing complete immobility or ≥ 70% motility inhibition plus severe morphological damage were considered hits in the larval screen.

[2] = system: NCI60 human tumor cell lines; assay: NCI60 5-dose (dose-response) assay; type: cell-based
Description: Columns IE-KK. NCI: Misra group (data presented first in this paper). NCI60 anti-tumor cell activity. Methods: […] These 60 cell lines, along with others, have been developed at NCI and have been maintained and distributed for research purposes by NCI for over 25 years. The experimental readout provides both inhibition of cell growth and cell kill. The screen was originally designed to prioritize agents for further evaluation. […] This is the same as for the 5-dose assay, described on http://dtp.cancer.gov/branches/btb/ivclsp.html. […] Testing beyond the initial screen: There were 133 compounds that passed threshold to proceed to 5-dose (dose-response) (data are available for the 133 compounds at the DTP public website (dtp.cancer.gov) by searching either the MMV number or NSC number). After examination of the 5-dose data, 10 compounds were selected for repeat testing based generally on potency, differential cell activity or activity on an individual cell lines or cell line panel. A summary of the data for the 10 compounds of interest is in the table below.

[3] = system: CYP3A4 mRNA; assay: MPCC LMA-Luminex CYP3A4 mRNA; type: cell-based, human; conditions: 10µM
[4] = system: CYP2C9 mRNA; assay: MPCC LMA-Luminex CYP2C9 mRNA; type: cell-based, human; conditions: 10µM
[5] = system: CYP2D6 mRNA; assay: MPCC LMA-Luminex CYP2D6 mRNA; type: cell-based, human; conditions: 10µM
[6] = system: MAOB mRNA; assay: MPCC LMA-Luminex MAOB mRNA; type: cell-based, human; conditions: 10µM
[7] = system: CYP2D8 mRNA; assay: MPCC LMA-Luminex CYP2D8 mRNA; type: cell-based, human; conditions: 10µM
[8] = system: MAOA mRNA; assay: MPCC LMA-Luminex MAOA mRNA; type: cell-based, human; conditions: 10µM
[9] = system: CYP2C19 mRNA; assay: MPCC LMA-Luminex CYP2C19 mRNA; type: cell-based, human; conditions: 10µM
[10] = system: CYP1A2 mRNA; assay: MPCC LMA-Luminex CYP1A2 mRNA; type: cell-based, human; conditions: 10µM
[11] = system: Strongyloides stercoralis; assay: Strongyloides stercoralis Scynexis; type: cell-based; conditions: 10µM
Experimental: Supplement ppat.1005763.s002.xlsx, sheet "S1 Table Heat Map" | column: Strongyloides stercoralis % dead at 10µM Scynexis

[12] = system: Toxoplasma gondii TS-4; conditions: ref [84]; read-out: Toxoplasma gondi TS4 EC50; cited from earlier work
[13] = mean over cell lines of one experiment, listed as 766523/2

Row | SMILES | Schistosoma mansoni adult worm primary assay % Motility Reduction (Hit ≥ 70%) [1] | Notes (NCI60 5-dose activity pattern) [2] | MGLI50 = Mean Growth Log I50 ([2]; 5-dose, mean over NCI60 panel) | _MID Log10GI50 [2, 13] | _MID Log10LC50 [2, 13] | _MID Log10TGI [2, 13] | Human hepatocyte CYP3A4 mRNA induction, 0.0 normal [3] | Human hepatocyte CYP2C9 mRNA induction, 0.0 normal [4] | Human hepatocyte CYP2D6 mRNA induction, 0.0 normal [5] | Human hepatocyte MAOB mRNA induction, 0.0 normal [6] | Human hepatocyte CYP2D8 mRNA induction, 0.0 normal [7] | Human hepatocyte MAOA mRNA induction, 0.0 normal [8] | Human hepatocyte CYP2C19 mRNA induction, 0.0 normal [9] | Human hepatocyte CYP1A2 mRNA induction, 0.0 normal [10] | Strongyloides stercoralis % dead [11] | EC50 [12]
1 | CCN1CCN(c2cc(C)c3cc(NC(=O)c4ccc(OC)c(OC)c4)ccc3n2)CC1 [MMV019074] | 25% | Specific lines sensitive | -4.91 | -4.8 Molar and -5.03 Molar | -4.0 Molar and -4.04 Molar | -4.05 Molar and -4.25 Molar | – | – | – | – | – | – | – | – | – | –
2 | CCOC(=O)c1cnc2ccc(OC)cc2c1NCc1ccccc1 [MMV665813] | 0% | – | – | – | – | – | -0.06 | -0.17 | -1.27 | -1.05 | -0.79 | -0.36 | -0.35 | -0.15 | – | –
3 | CCN(CC)c1cc(C)c2cc(NC(=O)c3cccc(OC)c3)ccc2n1 [MMV000498] | 0% | – | – | – | – | – | – | – | – | – | – | – | – | – | 25% | –
4 | COc1ccc(C(=O)Nc2ccc3nc(N4CCCCC4)cc(C)c3c2)cc1OC [MMV019758] | 50% | – | – | – | – | – | – | – | – | – | – | – | – | – | – | 25.7 µM
5 | COc1cc2cc(C(=O)Nc3ccccc3)c(N)nc2cc1OC [MMV006767] | 0% | – | – | – | – | – | 0.0216 | -0.09 | -0.21 | -0.22 | -0.10 | 0.23 | -0.39 | -0.09 | – | –
